Reference: patent publication US11414689B2, “Hydrolysis of steviol glycosides by beta-glucosidase” (Conagen Inc., priority 2017, dated 2022)

B1: B-glu1: Pichia pastoris (GS115) beta-glucosidase, SEQ ID NO: 1, His-tagged, expressed in E. coli (protein, listed as Pichia pastoris)
chain: MTQLDVESLIQELTLNEKVQLLSGSDFWHTTPVRRLGIPKMRLSDGPNGVRGTKFFNGVPTACFPCGTGLGATFDKELLKEAGSLMADEAKAKAASVVLGPTANIARGPNGGRGFESFGEDPVVNGLSSAAMINGLQGKYIAATMKHYVCNDLEMDRNCIDAQVSHRALREVYLLPFQIAVRDANPRAIMTAYNKANGEHVSQSKFLLDEVLRKEWGWDGLLMSDWFGVYDAKSSITNGLDLEMPGPPQCRVHSATDHAINSGEIHINDVDERVRSLLSLINYCHQSGVTEEDPETSDNNTPETIEKLRKISRESIVLLKDDDRNRSILPLKKSDKIAVIGNNAKQAAYCGGGSASVLSYHTTTPFDSIKSRLEDSNTPAYTIGADAYKNLPPLGPQMTDSDGKPGFDAKFFVGSPTSKDRKLIDHFQLTNSQVFLVDYYNEQIPENKEFYVDVEGQFIPEEDGTYNFGLTVFGTGRLFVDDKLVSDSSQNQTPGDSFFGLAAQEVIGSIHLVKGKAYKIKVLYGSSVTRTYEIAASVAFEGGAFTFGAAKQRNEDEEIARAVEIAKANDKVVLCIGLNQDFESEGFDRPDIKIPGATNKMVSAVLKANPNTVIVNQTGTPVEMPWASDAPVILQAWFGGSEAGTAIADVLFGDYNPSGKLTVTFPLRFEDNPAYLNFQSNKQACWYGEDVYVGYRYYETIDRPVLFPFGHGLSFTEFDFTDMFVRLEEENLEVEVVVRNTGKYDGAEVVQLYVAPVSPSLKRPIKELKEYAKIFLASGEAKTVHLSVPIKYATSFFDEYQKKWCSEKGEYTILLGSSSADIKVSQSITLEKTTFWKGL
modifications: His tag

Tests used:
[1] = system: disrupted Pichia cells (released B-glu1 enzyme); assay: hydrolysis of steviol glycosides by disrupted Pichia cells (crude extract), HPLC analysis; assay type: biochemical, Pichia pastoris; conditions: crude protein 50 ug in 300 ul, 1 g/L substrate, pH 7.2, 30-37° C.; FIG. 8 samples at 24 hours
Description: Pichia cells were suspended in extraction buffer (50 mM potassium phosphate buffer, pH 7.2; 150 mM NaCl). After sonication, the supernatant (crude extract) was collected by centrifuge set at 12,000 g at 4° C. The resulting crude protein (50 ug) was tested in a 300 ul in vitro reaction system. The reaction system contains 50 mM potassium phosphate buffer, pH 7.2, 1 mg/ml steviol glycoside. The reaction was performed at 30-37° C. and 50 ul reaction was terminated by adding 200 μL 1-butanol at various time points. The samples were extracted three times with 200 μL 1-butanol. The pooled fraction was dried and dissolved in 100 μL 80% methanol for high-performance liquid chromatography (HPLC) analysis. HPLC analysis was then performed using a Dionex UPLC ultimate 3000 system (Sunnyvale, Calif.), including a quaternary pump, a temperature controlled column compartment, an auto sampler and a UV absorbance detector. A Synergi Hydro-RP column (Phenomenex) with guard column was used for the characterization of steviol glycosides in the pooled samples. Acetonitrile in water was used mobile phase in the HPLC analysis. The detection wavelength used in the HPLC analysis was 210 nm.

[2] = system: Beta-glucosidase (B-glu1, SEQ: 1); assay: de-glycosylation (hydrolysis) of steviol glycosides by purified recombinant B-glu1, HPLC analysis; assay type: biochemical, Pichia pastoris; conditions: for extent of conversion by recombinant B-glu1 at 24 hrs: 1 g/L substrate; for Products of hydrolysis of steviol glycoside substrate by B-glu1: recombinant B-glu1 10 μg in 300 μl, 1 mg/ml steviol glycoside, 50 mM potassium phosphate pH 7.2, 30-37° C.
Excerpt: According to the current disclosure Pichia pastoris genome analysis was completed and several beta-glycosidase candidate genes were identified. Full length DNA fragments of all candidate beta-glucosidase genes were commercially synthesized. Almost all codons of the cDNA were changed to those preferred for E. coli (Genscript, NJ). The synthesized DNA was cloned into a bacterial expression vector pETite N-His SUMO Kan Vector (Lucigen). These same experiments could be performed in Yarrowia lipolytica with sequences optimized for such use.
Each expression construct was transformed into E. coli BL21 (DE3), which was subsequently grown in LB media containing 50 μg/mL kanamycin at 37° C. until reaching an OD600 of 0.8-1.0. Protein expression was induced by addition of 1 mM isopropyl β-D-1-thiogalactopyranoside (IPTG) and the culture was further grown at 16° C. for 22 hr. Cells were harvested by centrifugation (3,000×g; 10 min; 4° C.). The cell pellets were collected and were either used immediately or stored at −80° C.
The cell pellets typically were re-suspended in lysis buffer (50 mM potassium phosphate buffer, pH 7.2, 25 ug/ml lysozyme, 5 ug/ml DNase I, 20 mM imidazole, 500 mM NaCl, 10% glycerol, and 0.4% Triton X-100). The cells were disrupted by sonication under 4° C., and the cell debris was clarified by centrifugation (18,000×g; 30 min). Supernatant was loaded to an equilibrated (equilibration buffer: 50 mM potassium phosphate buffer, pH 7.2, 20 mM imidazole, 500 mM NaCl, 10% glycerol) Ni-NTA (Qiagen) affinity column. After loading of protein sample, the column was washed with equilibration buffer to remove unbound contaminant proteins. The His-tagged beta-glucosidase recombinant polypeptides were eluted by equilibration buffer containing 250 mM imidazole.
The purified candidate beta-glucosidase recombinant polypeptides were assayed for de-glycosylation activity by using various steviol glycosides as substrate. Typically, the recombinant polypeptide (10 μg) was tested in a 300 μl in vitro reaction system. The reaction system contains 50 mM potassium phosphate buffer, pH 7.2, 1 mg/ml steviol glycoside. The reaction was performed at 30-37° C. and 50 ul reaction was terminated by adding 200 μL 1-butanol at various time points. The samples were extracted three times with 200 μL 1-butanol. The pooled fraction was dried and dissolved in 100 μL 80% methanol for high-performance liquid chromatography (HPLC) analysis.
HPLC analysis was then performed using a Dionex UPLC ultimate 3000 system (Sunnyvale, Calif.), including a quaternary pump, a temperature controlled column compartment, an auto sampler and a UV absorbance detector. A Synergi Hydro-RP column (Phenomenex) with guard column was used for the characterization of steviol glycosides in the pooled samples. Acetonitrile in water was used mobile phase in the HPLC analysis. The detection wavelength used in the HPLC analysis was 210 nm.

[3] = relative to table sugar; cited from earlier work

Row | Molecule | Products of hydrolysis by disrupted Pichia cells [1] | Products of hydrolysis of steviol glycoside substrate by B-glu1 [2] | other results
1 | C=C1C[C@@]23CC[C@H]4[C@@](C)(CCC[C@@]4(C)C(=O)O[C@@H]4O[C@H](CO)[C@@H](O)[C@H](O[C@@H]5O[C@H](CO)[C@@H](O)[C@H](O)[C@H]5O)[C@H]4O)[C@@H]2CC[C@]1(O[C@@H]1O[C@H](CO)[C@@H](O)[C@H](O[C@@H]2O[C@H](CO)[C@@H](O)[C@H](O)[C@H]2O)[C@H]1O[C@@H]1O[C@H](CO)[C@@H](O)[C@H](O)[C@H]1O)C3 [Reb 1, rebaudioside I] | rebaudioside B | Reb A, Reb B | extent of conversion by recombinant B-glu1 at 24 hrs [2]: completely; Products of hydrolysis of steviol glycoside substrate by B-glu1 ([2]; listed as Rebaudioside I): rebaudioside A and the produced A can be hydrolyzed to produce rebaudioside B
2 | C=C1C[C@@]23CC[C@H]4[C@@](C)(CCC[C@@]4(C)C(=O)O[C@@H]4O[C@H](CO)[C@@H](O)[C@H](O)[C@H]4O)[C@@H]2CC[C@]1(O[C@@H]1O[C@H](CO)[C@@H](O)[C@H](O[C@@H]2O[C@H](CO)[C@@H](O)[C@H](O)[C@H]2O)[C@H]1O[C@@H]1O[C@H](CO)[C@@H](O)[C@H](O)[C@H]1O)C3 [Reb A, rebaudioside A] | rebaudioside B | Reb B | Products of hydrolysis of steviol glycoside substrate by B-glu1 ([2]; listed as Rebaudioside A): rebaudioside B
3 | C=C1C[C@@]23CC[C@H]4[C@@](C)(CCC[C@@]4(C)C(=O)O[C@@H]4O[C@H](CO)[C@@H](O)[C@H](O)[C@H]4O[C@@H]4O[C@H](CO)[C@@H](O)[C@H](O)[C@H]4O)[C@@H]2CC[C@]1(O[C@@H]1O[C@H](CO)[C@@H](O)[C@H](O[C@@H]2O[C@H](CO)[C@@H](O)[C@H](O)[C@H]2O)[C@H]1O[C@@H]1O[C@H](CO)[C@@H](O)[C@H](O)[C@H]1O)C3 [Reb D, rebaudioside D] | rebaudioside B | Reb B | Products of hydrolysis of steviol glycoside substrate by B-glu1 ([2]; listed as Rebaudioside D): rebaudioside B (FIG. 6B) and Reb A
4 | C=C1C[C@@]23CC[C@H]4[C@@](C)(CCC[C@@]4(C)C(=O)O[C@@H]4O[C@H](CO)[C@@H](O)[C@H](O)[C@H]4O[C@@H]4O[C@H](CO)[C@@H](O)[C@H](O)[C@H]4O)[C@@H]2CC[C@]1(O[C@@H]1O[C@H](CO)[C@@H](O)[C@H](O)[C@H]1O[C@@H]1O[C@H](CO)[C@@H](O)[C@H](O)[C@H]1O)C3 [Reb E, rebaudioside E] | steviolbioside | stevioside, Steviolbioside (SB) | Products of hydrolysis of steviol glycoside substrate by B-glu1 ([2]; listed as Rebaudioside E): stevioside and steviolbioside
5 | C=C1C[C@@]23CC[C@H]4[C@@](C)(CCC[C@@]4(C)C(=O)O[C@@H]4O[C@H](CO)[C@@H](O)[C@H](O)[C@H]4O)[C@@H]2CC[C@]1(O[C@@H]1O[C@H](CO)[C@@H](O)[C@H](O[C@@H]2O[C@H](CO)[C@@H](O)[C@H](O)[C@H]2O)[C@H]1O)C3 [Reb G, rebaudioside G] | steviol-13-glucoside and continually to produce steviol | Steviol-13-O-glucoside (S-13-G), steviol | Products of hydrolysis of steviol glycoside substrate by B-glu1 ([2]; listed as Rebaudioside G): steviol-13-glucoside
6 | C=C1C[C@@]23CC[C@H]4[C@@](C)(CCC[C@@]4(C)C(=O)O[C@@H]4O[C@H](CO)[C@@H](O)[C@H](O[C@@H]5O[C@H](CO)[C@@H](O)[C@H](O)[C@H]5O)[C@H]4O[C@@H]4O[C@H](CO)[C@@H](O)[C@H](O)[C@H]4O)[C@@H]2CC[C@]1(O[C@@H]1O[C@H](CO)[C@@H](O)[C@H](O[C@@H]2O[C@H](CO)[C@@H](O)[C@H](O)[C@H]2O)[C@H]1O[C@@H]1O[C@H](CO)[C@@H](O)[C@H](O)[C@H]1O)C3 [Reb M, rebaudioside M] |  | No cleavage | 
7 | C=C1C[C@@]23CC[C@H]4[C@@](C)(CCC[C@@]4(C)C(=O)O[C@@H]4O[C@H](CO)[C@@H](O)[C@H](O)[C@H]4O)[C@@H]2CC[C@]1(O[C@@H]1O[C@H](CO)[C@@H](O)[C@H](O)[C@H]1O)C3 [Rub, rubusoside] | steviol-13-glucoside and continually to produce steviol | Steviol-13-O-glucoside (S-13-G), steviol | Products of hydrolysis of steviol glycoside substrate by B-glu1 ([2]; listed as Rubusoside): steviol-13-glucoside
8 | C=C1C[C@@]23CC[C@H]4[C@@](C)(CCC[C@@]4(C)C(=O)O[C@@H]4O[C@H](CO)[C@@H](O)[C@H](O)[C@H]4O)[C@@H]2CC[C@]1(O[C@@H]1O[C@H](CO)[C@@H](O)[C@H](O)[C@H]1O[C@@H]1O[C@H](CO)[C@@H](O)[C@H](O)[C@H]1O)C3 [Stevioside, stevioside] | steviolbioside | Steviolbioside (SB) | sweetness relative to sucrose [3]: 100-150 times sweeter than sucrose
9 | C=C1C[C@@]23CC[C@H]4[C@@](C)(CCC[C@@]4(C)C(=O)O)[C@@H]2CC[C@]1(O[C@@H]1O[C@H](CO)[C@@H](O)[C@H](O)[C@H]1O)C3 [steviol-13-glucoside] |  | steviol | extent of conversion by recombinant B-glu1 at 24 hrs [2]: completely
10 | rebaudioside B [Reb B] |  | No cleavage | 
11 | B1 |  |  | activity to cleave related steviol glycosides ([2]; activity screening of candidate Pichia pastoris beta-glucosidases): strong activity
